Experimental data published in patent publication US11179363B2, “Non-steroidal selective glucocorticoid receptor agonistic modulators (SEGRAMs) and uses thereof” (ASSOCIATION POUR LA RECHERCHE À L'IGBMC (ARI), priority 2017, dated 2021).

Assays:
[1] = target: T1, glucocorticoid receptor (GR) (Mus musculus, UniProt P06537); assay: In vivo transcriptional analysis (q-RT-PCR) of the three GR functions in mouse ears; set-up: species or system Balb/C mice; details: topical 18 hours
T1 construct: RNA transcripts were then extracted from mouse ears; from tissue; host or cells: ear skin of Balb/C mice (in vivo topical treatment)
T1 sequence (P06537 1-792): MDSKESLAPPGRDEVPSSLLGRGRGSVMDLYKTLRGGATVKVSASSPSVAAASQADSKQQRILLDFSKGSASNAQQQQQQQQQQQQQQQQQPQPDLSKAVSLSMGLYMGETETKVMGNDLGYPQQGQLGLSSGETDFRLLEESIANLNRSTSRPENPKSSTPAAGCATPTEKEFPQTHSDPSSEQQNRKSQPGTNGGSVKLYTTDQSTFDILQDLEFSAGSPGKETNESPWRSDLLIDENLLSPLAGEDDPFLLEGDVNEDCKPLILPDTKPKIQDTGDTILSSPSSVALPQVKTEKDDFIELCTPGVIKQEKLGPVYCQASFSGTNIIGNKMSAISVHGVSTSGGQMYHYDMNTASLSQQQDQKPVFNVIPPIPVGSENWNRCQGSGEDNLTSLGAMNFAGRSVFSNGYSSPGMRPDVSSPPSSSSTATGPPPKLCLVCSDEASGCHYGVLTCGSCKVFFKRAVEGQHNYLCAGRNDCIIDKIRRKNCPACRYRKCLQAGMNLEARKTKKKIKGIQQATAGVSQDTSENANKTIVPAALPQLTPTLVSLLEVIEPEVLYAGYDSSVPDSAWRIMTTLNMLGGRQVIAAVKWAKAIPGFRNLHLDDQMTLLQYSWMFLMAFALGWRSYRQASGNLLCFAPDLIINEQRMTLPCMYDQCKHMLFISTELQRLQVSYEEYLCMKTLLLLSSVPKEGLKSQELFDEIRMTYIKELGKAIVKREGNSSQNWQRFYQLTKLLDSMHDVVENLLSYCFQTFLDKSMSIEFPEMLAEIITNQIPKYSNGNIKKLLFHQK
Protocol: RNA transcripts were then extracted from mouse ears and the transcripts of 4 genes were analyzed by q-RT-PCR: • (i) the directly GR-transactivated gene of the mTOR inhibitor REDD1, • (ii) the GR-directly transrepressed gene of keratin 5 (K5) and • (iii) the GR-indirectly “tethered” transrepressed genes of interleukin-1β (IL-1β) and interleukin-6 (IL-6), both being activated in presence of 12-O-tetradecanoylphorbol-13-acetate (TPA). Results

GR = target: T2, GR (Homo sapiens, UniProt P04150); details: cited from earlier work
T2 sequence (P04150 1-777): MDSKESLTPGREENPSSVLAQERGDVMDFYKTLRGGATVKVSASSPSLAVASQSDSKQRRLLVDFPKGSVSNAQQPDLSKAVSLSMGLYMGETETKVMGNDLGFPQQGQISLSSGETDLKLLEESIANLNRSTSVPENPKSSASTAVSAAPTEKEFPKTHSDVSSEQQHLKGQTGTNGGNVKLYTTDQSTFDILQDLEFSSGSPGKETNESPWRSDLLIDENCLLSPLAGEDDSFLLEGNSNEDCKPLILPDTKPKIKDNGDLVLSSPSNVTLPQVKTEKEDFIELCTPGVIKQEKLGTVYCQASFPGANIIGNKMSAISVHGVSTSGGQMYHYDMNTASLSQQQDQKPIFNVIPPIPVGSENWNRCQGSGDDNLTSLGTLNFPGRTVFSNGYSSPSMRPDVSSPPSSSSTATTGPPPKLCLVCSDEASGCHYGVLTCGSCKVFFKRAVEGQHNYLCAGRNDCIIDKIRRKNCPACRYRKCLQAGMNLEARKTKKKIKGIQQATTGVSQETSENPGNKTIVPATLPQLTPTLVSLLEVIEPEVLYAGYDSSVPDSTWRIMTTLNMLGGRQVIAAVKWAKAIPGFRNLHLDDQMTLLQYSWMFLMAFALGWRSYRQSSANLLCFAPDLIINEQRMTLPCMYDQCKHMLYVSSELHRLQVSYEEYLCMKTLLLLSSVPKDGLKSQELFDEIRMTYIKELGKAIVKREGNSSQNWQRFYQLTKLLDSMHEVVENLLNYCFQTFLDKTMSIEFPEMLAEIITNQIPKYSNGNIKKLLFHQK

[2] = tested on: OVA-induced asthma-like allergic lung inflammation; assay: Ovalbumin (OVA)-induced asthma-like allergic lung inflammation; assay type: in vivo, mice; details: OVA model
Protocol: Glucocorticoids have been (Pearlman et al., 1997. Ann Allergy Asthma Immunol. 78(4):356-62), and are still, widely used in asthma therapy. In order to investigate the possible CpdX anti-inflammatory activity in vivo, mice were sensitized and challenged with either ovalbumin (OVA) or house dust mite (HDM) to induce an asthma-like allergic lung inflammation.
Mice were intraperitoneally sensitized with either 50 μg OVA together with alum or with alum alone on D0, D7 and D14. Mice were then subdivided into three groups, and on D19, D20 and D21, they were intranasally (i.n.) challenged with 10 μg OVA. The first and the second group received intranasally 0.5 mg/kg of body weight of Dex or CpdX respectively, while the third group served as a control.
On D22, the lung allergic inflammation was assessed for each mouse by examination of the bronchoalveolar lavage fluid (BAL). The total BAL cells, eosinophils, neutrophils, macrophages and lymphocytes were counted. RNA transcripts were extracted from lung samples and RNA transcripts of IL-1β, IL-6, IL-4, IL-5, IL-10, IL-13, Eotaxin, CCL4 and TNFα were analyzed by q-RT-PCR. Histological (with H&E staining) and immunohistochemical (with eosinophil-specific and neutrophil-specific antibodies) analyses of lung tissues were also carried out.

K5 gene relative RNA expression (GR direct transrepression) ([1]; 1 nmole/cm^2, vs Vehicle): unchanged
REDD1 gene relative RNA expression (GR direct transactivation) ([1]; 1 nmole/cm^2, vs Vehicle): unchanged
SMILES: COc1ccc(F)cc1C(C)(C)CC(O)(CNc1ccc2c(c1)COC2=O)C(F)(F)F (racemic) [CpdX, 5-[4-(5-fluoro-2-methoxyphenyl)-2-hydroxy-4-methyl-2-(trifluoromethyl)pentylamino]-isobenzofuran-1(3H)-one]
GR functions induced (direct transactivation, direct transrepression, indirect tethered transrepression) ([1]; 1 nmole/cm^2): selectively exhibits an indirect tethered transrepression activity
indirect tethered transrepression activity of the GR (GR): still inducing
transactivation and direct transrepression functions of the GR (GR): does not induce
eosinophils and neutrophils in lung (immunohistochemistry) ([2]; data not shown): similarly decreased
number of macrophages in BAL ([2]; intranasal 0.5 mg/kg, D22): unchanged
total number of BAL cells, eosinophils, neutrophils and lymphocytes ([2]; intranasal 0.5 mg/kg, D22, vs control group): significantly decreased
peribronchiolar and perivascular inflammatory cell infiltration (histology) ([2]; lung paraffin sections): strongly decreased
lung expression of IL-1β, IL-6, IL-4, IL-5, IL-10, IL-13, Eotaxin, CCL4 and TNFα ([2]; q-RT-PCR): significantly and similarly decreased
